Where “and” joins values, the source holds several entries; their conditions need not be identical. Equal values may be shown once.
Assays:
[1] = system: HCT-116 cells; assay: Inhibition of sphere-forming ability of cancer cells (Test Example 1); format: cell-based; details: Homo sapiens, 96 h; HCT-116 spheres, non-adherent, serum-free, 4 days, CellTiter-Glo; read-out: Sphere IC50 value (concentration for 50% inhibition of cell proliferation)
Method: (§1) HCT-116 cells were available from the American Type Culture Collection (ATCC). HCT-116 cells were cultured at 37° C. and 5% CO2 using the McCoy's 5a medium containing 10% fetal bovine serum (FBS) and 1% penicillin/streptomycin. […] The test compounds were added into each well to adjust the final concentration of DMSO to 0.1%, and the cells were cultured for 4 days.

[2] = system: HCT-116 cells; assay: Test for inhibiting sphere-forming ability of cancer cells in the presence of BSA (Test Example 2); format: cell-based; details: Homo sapiens, 96 h; HCT-116 spheres, 5% bovine serum albumin (BSA), 4 days, CellTiter-Glo; read-out: Sphere IC50 value (concentration for 50% inhibition of cell proliferation)
Method: as §1

[3] = system: HCT-116 tumor-bearing mouse; assay: Anti-tumor effect to HCT-116 tumor-bearing mouse (Test Example 4); format: in vivo; details: nude mouse, oral
Excerpt: The present compound can be used to evaluate the anti-tumor effect thereof. A 4 to 7-week-old nude mouse (BALB/cAnNCrj-nu/nu, female, CHARLES RIVER LABORATORIES JAPAN, INC.) received intradermal transplantation of HCT-116 cells (ATCC) in an amount of 3×10^6 cells/mouse around the ventral portion. The engraftment of HCT-116 cells was observed 5 to 14 days after the transplantation, and then each compound suspended in a solvent such as 0.5% methylcellulose solution was orally administrated to the mouse in a dose of 1 to 100 mg/kg one to twice daily. The tumor volume was measured over time after the administration to evaluate the effect for reducing the tumor volume by the administration of each compound. The tumor volume can be calculated from the minor axis and the major axis of the tumor measured with a digital caliper (Mitutoyo) according to the following formula: Tumor volume [mm^3]=0.5×minor axis [mm]×(major axis [mm])^2
The tumor volume in control administration group treated with only a solvent such as 0.5% methylcellulose solution was compared with that of the present compound administration group, and T/C value was calculated according the following formula to evaluate the anti-tumor effect of the present compound. T/C (%)=(the tumor volume at the end of administration in the present compound administration group−the tumor volume at the start of administration in the present compound administration group)/(the tumor volume at the end of administration in the control administration group−the tumor volume at the start of administration in the […] administration group)×100
The T/C values (%) of the present compound on each dosage and administration period in the HCT-116 tumor-bearing mouse are shown below.

[4] = dosage 30 mg/kg, administration period 17 days
[5] = dosage 100 mg/kg, administration period 17 days

Row | Structure (SMILES) | IC50 [1] | IC50 [2] | T/C (%) [3, 4] | T/C (%) [3, 5] | T/C (%) ([3]; dosage 100 mg/kg, administration period 16 days)
1 | Nc1cc(C(=O)Nc2cn(Cc3cccc(C(F)(F)F)c3)cn2)cnc1CO [Example 45, 5-Amino-6-(hydroxymethyl)-N-{1-[3-(trifluoromethyl)benzyl]-1H-imidazol-4-yl}nicotinamide] | 0.029 µM | 0.059 µM | 90% and 91% | 81% | 
2 | O=C(Nc1cn(Cc2cccc(C(F)(F)F)c2)cn1)c1cnc(CO)cc1Cl [Example 36] | 0.074 µM | 0.481 µM |  |  | 
3 | O=C(/C=C/c1ccc(CO)nc1)Nc1cn(Cc2cccc(C(F)(F)F)c2)cn1 [Example 51] | 0.07 µM | 0.63 µM |  |  | 
4 | O=C(Nc1cn(Cc2cccc(C(F)(F)F)c2)cn1)c1csc(CO)n1 [Example 7] | 0.024 µM | 0.52 µM |  |  | 
5 | Nc1cc(C(=O)Nc2cn(Cc3cc(F)c(F)c(F)c3)cn2)cnc1CO [Example 46, 5-Amino-6-(hydroxymethyl)-N-[1-(3,4,5-trifluorobenzyl)-1H-imidazol-4-yl]nicotinamide] | 0.01 µM | 0.057 µM |  | 91% | 
6 | Cc1cc(C(=O)Nc2cn(Cc3cccc(C(F)(F)F)c3)cn2)cnc1CO [Example 42, 6-(Hydroxymethyl)-5-methyl-N-{1-[3-(trifluoromethyl)benzyl]-1H-imidazol-4-yl}nicotinamide] | < 0.01 µM | 0.06 µM |  |  | 

Second part, led by results:

Row | IC50 [1] | IC50 [2] | Structure (SMILES) | T/C (%) [3, 4] | T/C (%) [3, 5] | T/C (%) ([3]; dosage 100 mg/kg, administration period 16 days)
7 | < 0.01 µM | 0.053 µM | O=C(Nc1cn(Cc2cc(F)c(F)c(F)c2)cn1)c1cnc(CO)c(C(F)F)c1 [Example 18, 5-(difluoromethyl)-6-(hydroxymethyl)-N-[1-(3,4,5-trifluorobenzyl)-1H-imidazol-4-yl]nicotinamide] | 63% | 54% | 
8 | < 0.01 µM | < 0.01 µM | Cc1cc(C(=O)Nc2cn(Cc3cc(F)c(F)c(F)c3)cn2)cnc1CO [Example 39, 6-(hydroxymethyl)-5-methyl-N-[1-(3,4,5-trifluorobenzyl)-1H-imidazol-4-yl]nicotinamide] | 79% | 65% | 
9 | < 0.01 µM | 0.057 µM | O=C(Nc1cn(Cc2cccc(C(F)(F)F)c2)cn1)c1cnc(CO)c(C(F)F)c1 [Example 17, 5-(difluoromethyl)-6-(hydroxymethyl)-N-{1-[3-(trifluoromethyl)benzyl]-1H-imidazol-4-yl}nicotinamide] | 74% | 75% | 
10 | < 0.01 µM | 0.05 µM | O=C(Nc1cn(Cc2ccc(F)c(C(F)(F)F)c2)cn1)c1cnc(CO)c(C(F)F)c1 [Example 57, 5-(difluoromethyl)-N-{1-[4-fluoro-3-(trifluoromethyl)benzyl]-1H-imidazol-4-yl}-6-(hydroxymethyl)nicotinamide] |  |  | 
11 | < 0.01 µM | 0.06 µM | O=C(Nc1cn(Cc2cccc(C(F)(F)F)c2)cn1)c1ccc(CO)nc1 [Example 12, 6-(hydroxymethyl)-N-{1-[3-(trifluoromethyl)benzyl]-1H-imidazol-4-yl}nicotinamide] |  |  | 49%
12 | < 0.01 µM | 0.051 µM | O=C(Nc1nc(CO)cs1)c1cn(Cc2cc(F)c(F)c(F)c2)cn1 [Example 3] |  |  | 

— US11661397B2, “1,4-disubstituted imidazole derivative” (Sumitomo Pharma Co., Ltd., priority 2015, dated 2023)
